# In patent publication US20240374579A1, “BICYCLIC PGDH INHIBITORS AND METHODS OF MAKING AND USING” (EPIRIUM BIO INC., priority 2021, published 2024):
# Biological target: T1, 15-PGDH/HPGD (Homo sapiens, UniProt P15428)
# T1 construct: purchased R&D System 5660-DH
# T1 sequence (P15428 1-266): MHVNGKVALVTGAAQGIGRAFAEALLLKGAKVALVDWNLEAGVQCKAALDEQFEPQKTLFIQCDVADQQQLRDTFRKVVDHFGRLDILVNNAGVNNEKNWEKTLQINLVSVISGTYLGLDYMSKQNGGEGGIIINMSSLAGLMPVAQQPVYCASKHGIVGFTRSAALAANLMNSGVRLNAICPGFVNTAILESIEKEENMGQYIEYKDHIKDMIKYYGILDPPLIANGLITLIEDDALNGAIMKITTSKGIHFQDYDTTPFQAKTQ
# Experiment: hPGDH inhibitor screening biochemical assay
# Settings: 10 nM enzyme, 15 μM PGE2, 0.25 mM NAD, fluorescence ex/em 340/485 nm
# Experimental: A hydroxyprostaglandin dehydrogenase inhibition screening biochemical assay can be performed to assess the synthesized inhibitors provided herein. Provided herein is an exemplary biochemical assay for hPGDH inhibitor screening.
# The in vitro biochemical assay can be performed in white, 384 plates in total 20 μl reaction volume consisting of 10 nM of 15-PGDH/HPGD (R&D System #5660-DH), 15 μM Prostaglandin E2 (Sigma, Cat #P5640-10MG) and 0.25 mM β-Nicotinamide adenine dinucleotide sodium salt (Sigma, Cat #N0632-5G) made in reaction buffer (50 mM Tris-HCl, pH 7.5, 0.01% Tween 20) at 10-point dose response curve for test/tool compounds. Briefly, 5 μl (4×) of compounds solution and 5 μl (final concentration, 10 nM) of enzyme solution is added to white 384 well plates and incubated for 10 mins at 37° C. 5 μl (4×) of Prostaglandin E2 and 5 μl (4×) of β-Nicotinamide adenine dinucleotide sodium salt is added to the wells and incubated for 10 mins at room temperature. Fluorescence is recorded at ex/em=340 nm/485 nm. The percentage ([…]) inhibition of enzyme activity was determined relative to positive control (1% DMSO) and IC50 was calculated using GraphPad prism software (four parameter-variable slope equation).
row,IC50,Compound
1,< 100 nM,C[C@H]1CCN(C(=O)c2cnc3c(cnn3-c3ccc(-c4nnc[nH]4)nc3)c2)C1 [Compound C-21]
2,100 to 1000 nM,O=C(Nc1cccc(-n2ncc3cc(C(=O)N4CCC(F)(F)CC4)cnc32)c1)C1CC1 [Compound C-49]
3,< 100 nM,COc1cc(-c2nnc[nH]2)cc(-n2ncc3cc(C(=O)N4CCC(F)(F)CC4)cnc32)c1 [Compound C-71]
4,< 100 nM,"O=C(O)c1ccc(-c2cnc3cc(C(=O)N4CCC(F)(F)CC4)ccn23)cc1 [Compound D-1, 4-(7-(4,4-difluoropiperidine-1-carbonyl)imidazo[1,2-a]pyridin-3-yl)benzoic acid]"
5,100 to 1000 nM,O=C(c1cnc2c(cnn2-c2ccc(-c3nnc[nH]3)c(F)c2)c1)N1CC[S+]([O-])CC1 [Compound C-69]
6,100 to 1000 nM,CCCC[S+]([O-])c1cnc2c(cnn2-c2cccc(-c3nnc[nH]3)c2)c1 (centres unmarked) [Compound C-92]
7,≥ 1000 nM,CCO[C@@H]1CCN(C(=O)c2cnc3c(cnn3-c3ccc(-c4nnc[nH]4)cc3)c2)C1 [Compound C-44]
8,< 100 nM,"O=C(O)c1ccc(-n2nnc3cc(C(=O)N4CCC(F)(F)CC4)cnc32)cc1 [Compound C-1, 4-(6-(4,4-difluoropiperidine-1-carbonyl)-3H-[1,2,3]triazolo[4,5-b]pyridin-3-yl)benzoic acid]"
9,≥ 1000 nM,C[C@H]1CCN(C(=O)c2cnc3c(cnn3-c3ccc(-c4nnc[nH]4)cc3)c2)C1 [Compound C-47]
10,100 to 1000 nM,C[C@@H]1CCN(C(=O)c2cnc3c(cnn3-c3ccc(-c4nnc[nH]4)cc3)c2)C1 [Compound C-46]
11,< 100 nM,O=C(c1cnc2c(cnn2-c2ccc(-c3nnc[nH]3)cc2)c1)N1CCCC(F)(F)C1 [Compound C-31]
12,< 100 nM,O=C(c1ccc2c(cnn2-c2ccc(-c3ncn[nH]3)cc2)c1)N1CCC(F)(F)CC1 [Compound C-13]
13,< 100 nM,Cc1cc(-n2ncc3cc(C(=O)N4CCC(F)(F)CC4)cnc32)ccc1-c1nnc[nH]1 [Compound C-72]
14,100 to 1000 nM,CC1(C)CCN(C(=O)c2cnc3c(cnn3-c3ccc(-c4nnc[nH]4)cc3)c2)C1 [Compound C-51]
15,< 100 nM,"O=C(c1ccc2c(c1)ncn2-c1ccc(-c2ncn[nH]2)cc1)N1CCC(F)(F)CC1 [Compound C-16, (1-(4-(1H-1,2,4-triazol-5-yl)phenyl)-1H-benzo[d]imidazol-5-yl)(4,4-difluoropiperidin-1-yl)methanone]"
16,100 to 1000 nM,"O=C(c1ccn2c(-c3ccc(-c4ncn[nH]4)nc3)cnc2c1)N1CCC(F)(F)CC1 [Compound D-3, (3-(6-(1H-1,2,4-triazol-5-yl)pyridin-3-yl)imidazo[1,2-a]pyridin-7-yl)(4,4-difluoropiperidin-1-yl)methanone]"
17,< 100 nM,"O=C(c1cnc2c(cnn2-c2cccc(-c3nnc[nH]3)c2)c1)N1CCC(F)(F)CC1 [Compound C-41, (1-(3-(4H-1,2,4-triazol-3-yl)phenyl)-1H-pyrazolo[3,4-b]pyridin-5-yl)(4,4-difluoropiperidin-1-yl)methanone]"
18,< 100 nM,O=C(c1cnc2c(cnn2-c2ccc(-c3ncn[nH]3)nc2)c1)N1CCC(F)(F)CC1 [Compound C-4]
19,< 100 nM,"O=C(c1cnc2c(c1)nnn2-c1ccc(-c2ncn[nH]2)cc1)N1CCC(F)(F)CC1 [Compound C-7, (3-(4-(1H-1,2,4-triazol-5-yl)phenyl)-3H-[1,2,3]triazolo[4,5-b]pyridin-6-yl) (4,4-difluoropiperidin-1-yl)methanone]"
20,< 100 nM,C[C@H]1CCCN(C(=O)c2cnc3c(cnn3-c3cncc(-c4nc[nH]n4)c3)c2)C1 [Compound C-34]
21,< 100 nM,"O=C(O)c1ccc(-n2cnc3cc(C(=O)N4CCC(F)(F)CC4)ccc32)cc1 [Compound C-17, 4-(5-(4,4-difluoropiperidine-1-carbonyl)-1H-benzo[d]imidazol-1-yl) benzoic acid]"
22,100 to 1000 nM,CCOC(=O)Nc1cncc(-n2ncc3cc(C(=O)N4CC[C@H](C(C)(F)F)C4)cnc32)c1 [Compound C-65]
23,< 100 nM,"O=C(c1cnc2c(cnn2-c2cc(Cl)cc(-c3nnc[nH]3)c2)c1)N1CCSCC1 [Compound C-66, (1-(3-chloro-5-(4H-1,2,4-triazol-3-yl)phenyl)-1H-pyrazolo[3,4-b]pyridin-5-yl)(thiomorpholino)methanone]"
24,100 to 1000 nM,O=C(c1cnc2c(cnn2-c2ccc(-c3nnc[nH]3)cc2)c1)N1CC2CC2C1 (centres unmarked) [Compound C-42]
25,100 to 1000 nM,O=C(c1cnc2c(cnn2-c2ccc(-c3nnc[nH]3)c(Cl)c2)c1)N1CC[S+]([O-])CC1 [Compound C-70]

row,IC50,Compound
1,100 to 1000 nM,CCCC[S+]([O-])c1cnc2c(cnn2-c2ccc(-c3nnc[nH]3)cc2)c1 (centres unmarked) [Compound C-93]
2,< 100 nM,COc1cc(-n2ncc3cc(C(=O)N4CCC(F)(F)CC4)cnc32)ccc1-c1nnc[nH]1 [Compound C-74]
3,100 to 1000 nM,CCOC(=O)Nc1cncc(-n2ncc3cc([S+]([O-])CC4CC4)cnc32)c1 (centres unmarked) [Compound C-90]
4,100 to 1000 nM,"O=C(c1ccc2c(c1)ncn2-c1ccc(-c2ncn[nH]2)nc1)N1CCC(F)(F)CC1 [Compound C-15, (1-(6-(1H-1,2,4-triazol-5-yl)pyridin-3-yl)-1H-benzo[d]imidazol-5-yl)(4,4-difluoropiperidin-1-yl)methanone]"
5,100 to 1000 nM,"O=C(c1ccc2c(c1)nnn2-c1ccc(-c2ncn[nH]2)cc1)N1CCC(F)(F)CC1 [Compound C-10, (1-(4-(1H-1,2,4-triazol-5-yl)phenyl)-1H-benzo[d][1,2,3]triazol-5-yl) (4,4-difluoropiperidin-1-yl)methanone]"
6,100 to 1000 nM,CCCC[S+]([O-])c1cnc2c(cnn2-c2cncc(NC(=O)OCC)c2)c1 (centres unmarked) [Compound C-94]
7,< 100 nM,O=C(c1cnc2c(cnn2-c2cc(Cl)cc(-c3nnc[nH]3)c2)c1)N1CCC(F)(F)CC1 [Compound C-62]
8,< 100 nM,"Cc1nc2cc(C(=O)N3CCC(F)(F)CC3)cnc2n1-c1ccc(C(=O)O)cc1 [Compound C-3, 4-(6-(4,4-difluoropiperidine-1-carbonyl)-2-methyl-3H-imidazo[4,5-b]pyridin-3-yl)benzoic acid]"
9,< 100 nM,O=C(c1cnc2c(cnn2-c2ccc(-c3nnc[nH]3)c(F)c2)c1)N1CCSCC1 [Compound C-64]
10,100 to 1000 nM,"O=C(O)c1ccc(-n2nnc3cc(C(=O)N4CCC(F)(F)CC4)ccc32)cc1 [Compound C-11, 4-(5-(4,4-difluoropiperidine-1-carbonyl)-1H-benzo[d][1,2,3]triazol-1-yl) benzoic acid]"
11,< 100 nM,O=C(c1ccc2c(cnn2-c2ccc(-c3ncn[nH]3)nc2)c1)N1CCC(F)(F)CC1 [Compound C-12]
12,100 to 1000 nM,"O=C(c1ccc2c(c1)nnn2-c1ccc(-c2ncn[nH]2)nc1)N1CCC(F)(F)CC1 [Compound C-9, (1-(6-(1H-1,2,4-triazol-5-yl)pyridin-3-yl)-1H-benzo[d][1,2,3]triazol-5-yl) (4,4-difluoropiperidin-1-yl)methanone]"
13,100 to 1000 nM,"O=C(O)c1ccc(-n2cc3cc(C(=O)N4CCC(F)(F)CC4)ccc3n2)cc1 [Compound D-4, 4-(5-(4,4-difluoropiperidine-1-carbonyl)-2H-indazol-2-yl) benzoic acid]"
14,< 100 nM,O=C(c1cnc2c(cnn2-c2ccc(-c3nnc[nH]3)nc2)c1)N1CC2CCCC2C1 (centres unmarked) [Compound C-22]
15,100 to 1000 nM,O=C(c1cnc2c(cnn2-c2ccc(-c3nnc[nH]3)cc2)c1)N1CCCC(C(F)(F)F)C1 (centres unmarked) [Compound C-58]
16,100 to 1000 nM,CCOC(=O)Nc1cncc(-n2ncc3cc(C(=O)N4CCC[C@H](C(F)(F)F)C4)cnc32)c1 [Compound C-54]
17,< 100 nM,C[C@@H]1CN(C(=O)c2cnc3c(cnn3-c3cc(Cl)cc(-c4nnc[nH]4)c3)c2)CCO1 [Compound C-60]
18,< 100 nM,C[C@H]1CCCN(C(=O)c2cnc3c(cnn3-c3cncc(C(N)=O)c3)c2)C1 [Compound C-35]
19,100 to 1000 nM,[O-][S+](CC1CC1)c1cnc2c(cnn2-c2ccc(-c3nnc[nH]3)cc2)c1 (centres unmarked) [Compound C-95]
20,100 to 1000 nM,"O=C(O)c1ccc(-c2cnc3cc(C(=O)N4CCC(F)(F)CC4)ccn23)cn1 [Compound D-2, 5-(7-(4,4-difluoropiperidine-1-carbonyl)imidazo[1,2-a]pyridin-3-yl)picolinic acid]"
21,< 100 nM,O=C(c1cnc2c(cnn2-c2ccc(-c3nnc[nH]3)c(F)c2)c1)N1CCC(F)(F)CC1 [Compound C-63]
22,< 100 nM,CC(F)(F)[C@H]1CCN(C(=O)c2cnc3c(cnn3-c3ccc(-c4nnc[nH]4)cc3)c2)C1 [Compound C-61]
23,< 100 nM,O=C(c1cnc2c(cnn2-c2ccc(-c3nnc[nH]3)c(Cl)c2)c1)N1CCSCC1 [Compound C-68]
24,< 100 nM,"O=C(O)c1ccc(-n2ncc3cc(C(=O)N4CCC(F)(F)CC4)ccc32)cc1 [Compound C-14, 4-(5-(4,4-difluoropiperidine-1-carbonyl)-1H-indazol-1-yl) benzoic acid]"
25,< 100 nM,C[C@H]1CCCN(C(=O)c2cnc3c(cnn3-c3ccc(-c4nnc[nH]4)nc3)c2)C1 [Compound C-20]
